From ChEMBL document CHEMBL5291721, “A preclinical secondary pharmacology resource illuminates target-adverse drug reaction associations of marketed drugs” (Nat Commun, 2023) come the findings set out here.

The structures appear in SMILES notation. Some results are limits rather than exact numbers.

Assay [1] has as its target T1, Corticotropin-releasing factor receptor 1 (Homo sapiens, UniProt P34998).
T1 sequence (P34998 whole entry): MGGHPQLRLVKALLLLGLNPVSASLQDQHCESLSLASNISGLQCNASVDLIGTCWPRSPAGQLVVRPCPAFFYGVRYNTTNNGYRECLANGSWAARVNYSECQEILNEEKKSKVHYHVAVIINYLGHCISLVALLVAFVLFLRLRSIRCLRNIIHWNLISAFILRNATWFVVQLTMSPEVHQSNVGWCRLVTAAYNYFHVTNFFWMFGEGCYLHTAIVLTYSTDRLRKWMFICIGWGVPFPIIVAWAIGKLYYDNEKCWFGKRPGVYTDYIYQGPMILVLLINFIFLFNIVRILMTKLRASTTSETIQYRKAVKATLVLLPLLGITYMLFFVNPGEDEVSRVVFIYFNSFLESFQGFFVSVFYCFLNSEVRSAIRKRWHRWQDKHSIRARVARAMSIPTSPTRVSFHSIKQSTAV

Assay [2] concerns the target T2, Gastric inhibitory polypeptide receptor (Homo sapiens, UniProt P48546).
T2 sequence (P48546 whole entry): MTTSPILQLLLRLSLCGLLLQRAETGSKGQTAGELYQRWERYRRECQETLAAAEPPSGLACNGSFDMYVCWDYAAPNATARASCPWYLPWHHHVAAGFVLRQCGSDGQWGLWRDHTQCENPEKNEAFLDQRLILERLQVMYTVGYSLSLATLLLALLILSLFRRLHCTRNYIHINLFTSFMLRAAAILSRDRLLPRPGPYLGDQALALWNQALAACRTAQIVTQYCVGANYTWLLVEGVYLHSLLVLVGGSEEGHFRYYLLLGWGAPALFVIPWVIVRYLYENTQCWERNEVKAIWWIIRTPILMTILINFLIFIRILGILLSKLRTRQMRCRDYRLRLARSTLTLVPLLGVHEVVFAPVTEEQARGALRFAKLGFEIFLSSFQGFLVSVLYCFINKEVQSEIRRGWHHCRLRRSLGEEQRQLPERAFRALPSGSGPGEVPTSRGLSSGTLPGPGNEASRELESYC

For assay [3], the target named is Neurotensin receptor type 1 (Homo sapiens, UniProt P30989).
The target in another assay is T3, Progesterone receptor (Homo sapiens, UniProt P06401).
T3 sequence (P06401 whole entry): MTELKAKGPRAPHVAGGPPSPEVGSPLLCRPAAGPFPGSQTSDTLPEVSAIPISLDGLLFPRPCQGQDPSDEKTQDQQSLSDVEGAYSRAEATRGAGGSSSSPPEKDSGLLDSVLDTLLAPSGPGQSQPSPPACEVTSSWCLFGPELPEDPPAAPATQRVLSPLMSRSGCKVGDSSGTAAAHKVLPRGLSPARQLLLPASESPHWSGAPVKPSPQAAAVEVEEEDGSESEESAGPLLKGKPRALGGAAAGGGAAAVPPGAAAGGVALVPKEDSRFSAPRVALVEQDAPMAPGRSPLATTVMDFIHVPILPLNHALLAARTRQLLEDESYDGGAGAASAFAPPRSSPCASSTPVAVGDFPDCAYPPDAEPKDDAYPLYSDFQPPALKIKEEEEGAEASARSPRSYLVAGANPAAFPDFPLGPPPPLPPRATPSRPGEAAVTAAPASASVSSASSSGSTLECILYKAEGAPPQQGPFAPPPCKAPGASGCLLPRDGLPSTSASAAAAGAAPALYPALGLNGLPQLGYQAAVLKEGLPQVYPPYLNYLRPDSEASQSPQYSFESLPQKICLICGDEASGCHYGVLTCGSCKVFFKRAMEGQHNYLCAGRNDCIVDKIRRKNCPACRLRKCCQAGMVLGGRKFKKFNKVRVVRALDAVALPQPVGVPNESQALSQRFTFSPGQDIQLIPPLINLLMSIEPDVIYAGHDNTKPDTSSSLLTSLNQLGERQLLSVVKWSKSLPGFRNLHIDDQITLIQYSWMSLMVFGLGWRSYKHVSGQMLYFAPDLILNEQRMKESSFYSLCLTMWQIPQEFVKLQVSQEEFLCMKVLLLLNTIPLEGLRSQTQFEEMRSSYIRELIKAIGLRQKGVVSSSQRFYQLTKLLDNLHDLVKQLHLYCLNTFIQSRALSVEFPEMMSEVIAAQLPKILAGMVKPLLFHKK

For the next assay, the target named is T4, Glucocorticoid receptor (Homo sapiens, UniProt P04150).
T4 sequence (P04150 whole entry): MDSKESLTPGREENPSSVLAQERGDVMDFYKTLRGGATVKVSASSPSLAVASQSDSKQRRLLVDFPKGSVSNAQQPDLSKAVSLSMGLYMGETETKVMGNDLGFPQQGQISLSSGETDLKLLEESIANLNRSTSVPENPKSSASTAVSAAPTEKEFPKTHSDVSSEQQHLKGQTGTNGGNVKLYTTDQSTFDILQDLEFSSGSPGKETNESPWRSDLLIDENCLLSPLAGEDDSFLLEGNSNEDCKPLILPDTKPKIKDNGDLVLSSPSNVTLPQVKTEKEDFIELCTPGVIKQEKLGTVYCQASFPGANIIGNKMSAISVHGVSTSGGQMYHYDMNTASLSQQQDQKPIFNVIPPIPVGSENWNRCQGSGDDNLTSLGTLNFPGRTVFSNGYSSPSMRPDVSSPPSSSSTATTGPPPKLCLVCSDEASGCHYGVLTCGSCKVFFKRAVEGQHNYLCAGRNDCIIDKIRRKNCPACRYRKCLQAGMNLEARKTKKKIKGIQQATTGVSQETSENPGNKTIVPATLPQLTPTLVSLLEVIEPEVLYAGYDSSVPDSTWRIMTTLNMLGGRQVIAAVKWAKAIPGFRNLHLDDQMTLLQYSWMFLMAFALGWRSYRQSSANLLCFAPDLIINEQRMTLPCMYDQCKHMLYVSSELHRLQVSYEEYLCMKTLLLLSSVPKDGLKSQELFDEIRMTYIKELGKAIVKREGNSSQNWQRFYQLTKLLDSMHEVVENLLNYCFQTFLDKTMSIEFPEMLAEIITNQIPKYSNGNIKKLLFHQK
In kind it is functional.
Also: assay procedure not described here.

Chain of Neurotensin receptor type 1 (P30989 whole entry): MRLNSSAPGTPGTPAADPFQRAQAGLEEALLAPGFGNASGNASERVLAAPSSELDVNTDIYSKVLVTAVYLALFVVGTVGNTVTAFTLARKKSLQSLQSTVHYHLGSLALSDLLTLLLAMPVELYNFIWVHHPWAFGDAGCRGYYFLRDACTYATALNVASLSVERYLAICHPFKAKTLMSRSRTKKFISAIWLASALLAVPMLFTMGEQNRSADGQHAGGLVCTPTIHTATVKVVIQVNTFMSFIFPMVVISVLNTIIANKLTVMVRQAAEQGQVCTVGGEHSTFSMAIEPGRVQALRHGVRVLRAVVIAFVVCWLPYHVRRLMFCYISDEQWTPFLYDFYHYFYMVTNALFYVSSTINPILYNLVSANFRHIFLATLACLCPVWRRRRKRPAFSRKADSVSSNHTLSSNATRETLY

For orientation: AC50 means the midpoint of the concentration-response curve, whichever way the signal moves. In the case of `N=C(N)NC(=O)c1nc(Cl)c(N)nc1N` [AMILORIDE], the AC50 (in assay [1]; in assay [2]; in assay [3]; on Progesterone receptor) was above 30 µM throughout.
As to `COc1cccc2c1C(=O)c1c(O)c3c(c(O)c1C2=O)C[C@@](O)(C(=O)CO)C[C@@H]3O[C@H]1C[C@H](N)[C@H](O)[C@H](C)O1` [DOXORUBICIN], the values for the AC50 at Glucocorticoid receptor and on Progesterone receptor were 11 µM and 1.7 µM, respectively.
As to `C[C@]12C=CC(=O)C=C1CC[C@@H]1[C@@H]2[C@@H](O)C[C@@]2(C)[C@H]1CC[C@]2(O)C(=O)CO` [PREDNISOLONE], the concentration at half-maximal activity (AC50) in assay [1], in assay [2] and in assay [3] was above 30 µM in each case.
Turning to `CC1(C)O[C@@H]2C[C@H]3[C@@H]4CCC5=CC(=O)C=C[C@]5(C)[C@@]4(F)[C@@H](O)C[C@]3(C)[C@]2(C(=O)CO)O1` [TRIAMCINOLONE ACETONIDE], the AC50 on Glucocorticoid receptor stood at 0.0039 µM.
